Assay results: article PMC8910697, “Development of VPC-70619, a Small-Molecule N-Myc Inhibitor as a Potential Therapy for Neuroendocrine Prostate Cancer” (International Journal of Molecular Sciences, 2022)

Columns and labels:
[1] = system: N-Myc-Max transcription activity (LNCaP-NMYC cells); experiment: Myc transcription assay (Cignal Myc reporter, luciferase) in LNCaP-NMYC cells; type: cell-based
Summary of the method: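 LNCaP-NMYC cells transfected with Cignal Myc luciferase reporter were treated 24 h with compounds at 5 µM or 10 µM. Read-out: inhibition of N-Myc-Max-driven reporter luminescence.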

[2] = system: N-Myc-Max binding to DNA E-box; experiment: Biolayer interferometry (BLI), N-Myc-Max binding to biotinylated E-box DNA; type: biochemical; conditions: BLI, 0, 50, 100, 200 µM
Description: To confirm that 70619 could disrupt the binding of N-Myc-Max DBD to DNA, we performed a bio-layer interferometry (BLI) assay where we immobilized biotinylated E-box sequence on streptavidin sensors, and we evaluated recombinant N-Myc-Max binding to the DNA in the presence of increasing concentrations of VPC-70619. […] We observed a similar number of interactions when comparing the ratio of signal per nuclei in the presence or absence of the compound.
(§1) The bHLHLZ domain of N-Myc (amino acids 309–394) and Max (amino acids 12–93) protein sequences were cloned into pETDuet with an N-terminal 6×His. pETDuet-His-NMyc-Max was transformed and expressed in E. coli BL21 and induced with 0.5 mM isopropyl-β-D-thiogalactopyranoside (IPTG) at 16 °C overnight. The cultures were lysed by sonication and combined for purification by immobilized metal ion chromatography (IMAC) with nickel-nitrilotriacetic acid (Ni-NTA) resin. The bound proteins were eluted from the column with 20 mM Tris, pH = 8, 500 mM NaCl, 5% glycerol, 300 mM imidazole, 5 mM βMe, and 0.1 mM PMSF. Size exclusion chromatography with Superdex 75 was used to increase the purity of the N-Myc-Max protein sample. The purified protein complex was used in subsequent BLI and MST experiments.
Biotinylated-duplex DNA (Forward: 5′ Biotin-[…], Reverse: […]) was bound to the super-streptavidin (SSA) ForteBio Sensor in the assay buffer [20 mM Tris pH = 8, 150 mM NaCl, 5% glycerol, and 0.2 mM TCEP]. The protein solution was mixed with the serially diluted compound (70619) to a final concentration of 0.1 mg/mL of protein and 200 μM, 100 μM, and 50 μM for the compound. Sample containing N-Myc-Max protein alone was used as a control.

N-Myc-Max complex = biological target: T1, N-Myc-Max complex (Homo sapiens, UniProt P04198+P61244); experiment: Microscale thermophoresis (MST) binding; conditions: for binding to N-Myc-Max complex (in words): MST
T1 construct: N-Myc (amino acids 309–394) and Max (amino acids 12–93); 6xHis (N); made in house; host or cells: E. coli BL21
T1 sequence (P04198 379-464 limits assumed): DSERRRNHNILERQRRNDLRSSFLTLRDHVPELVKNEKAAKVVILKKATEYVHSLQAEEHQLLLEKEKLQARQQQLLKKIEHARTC
T1 sequence (P61244 12-93 isoform P61244-2 limits assumed): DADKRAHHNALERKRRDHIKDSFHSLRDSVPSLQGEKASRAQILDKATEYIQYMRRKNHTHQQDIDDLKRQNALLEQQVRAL
Description: We first performed a microscale thermophoresis (MST) assay to validate the direct binding of VPC-70619 to the recombinant N-Myc-Max complex and to calculate the binding affinity. We evaluated the effect of increasing concentrations of 70619 on the movement of a fluorescent labelled N-Myc-Max complex through a temperature gradient induced by an infrared laser.
as §1
An MST assay was conducted to determine the binding affinity of 70619 to the purified N-Myc-Max protein complex. N-Myc-Max protein samples were labeled with the red fluorescent dye NT647 using the Monolith NT Protein labeling kit RED-NHS amine-reactive (NanoTemper Technologies, München, Germany); 70619 was serial diluted with 100% DMSO and mixed with the labeled fluorescent N-Myc-Max (final concentration of protein: 5 nM) in the assay reaction buffer (20 mM Tris, pH = 8, 100 mM NaCl, 0.2 mM TCEP, 0.1 mM PMSF, 5% glycerol) starting at 600 μM, with a final concentration of DMSO of 5%. The protein/inhibitor solution was mixed and incubated at room temperature in the dark for 5 min before being filled into the capillaries. […] Analysis of the data for Kd estimation was calculated with the MO Affinity Analysis software from Nanotemper (München, Germany).

N#Cc1ccc(NNC(=O)c2ccc(C#N)c(Cl)c2)c(C(F)(F)F)c1 [compound 70619]
IC50 ([1]; 24 h, treatment for 1 day, 0–25 µM, read-out: IC50 in the luciferase transcription inhibition assay): 4.3 µM | transcription inhibition activity at 5 µM (in words) ([1]; LNCaP-NMYC, 5 µM): restoring the inhibitory activity | disruption of DNA binding to (N-)Myc-Max (in words) [2]: disrupt DNA binding at 100 µM | disruption of DNA binding to (N-)Myc-Max (in words) ([2]; listed as VPC-70619): effective at blocking N-Myc-Max binding to DNA in a dose-dependent manner | binding to N-Myc-Max complex (in words) (N-Myc-Max complex): bind weakly | binding to N-Myc-Max complex (in words) (N-Myc-Max complex; listed as VPC-70619): somewhat weak affinity | Kd (N-Myc-Max complex; estimate, limited solubility in assay buffer, read-out: dissociation constant): > 130 µM
